Data reported in US20210220312A1, “Compositions And Methods For Modulating Cancer” (Tyme, Inc., priority 2020, published 2021).

System: HCT116 tumors
Experiment: Antitumor effect of oral α-methyl-DL-tyrosine in athymic nude mice bearing HCT116 tumors
Type: in vivo
Experimental: A study was conducted to evaluate the antitumor effect of an oral formulations of α-methyl-DL-tyrosine in athymic nude mice bearing HCT116 tumors. Athymic nude mice (female, 6-7 weeks old) were purchased from Charles River Laboratories, USA. The mice were housed in a ventilated cage rack with HEAP filter system, with 12-hour light cycle at 21-24° C. (70-75° F.) and 40-60% humidity. The mice were fed with Rodent Diet 5001 (Lab Diet) consisting of: >23% protein; >4.5% fat; and >6% fiber. The mice were allowed free access to water ([…] water, 1 ppm CI). The mice were acclimated for 5 days prior to the implantation of HCT116 cells at 1 million cells per mouse in 100 ul of 1×PBS containing 50% Matrigel. At the completion of study, mice were euthanized with isoflurane followed by inhalation of carbon dioxide (CO2). The HCT116 cells (human colon carcinoma) were purchased from ATCC, and expanded to sufficient number of cells for tumor cell implantation. Solutions of α-methyl-DL-tyrosine at 16.2 mg/ml, 32.4 mg/ml, and 64.8 mg/ml in water were prepared After an acclimation period of 5 days, fifty (50) athymic nude female mice were inoculated in the thigh/flank area with 1 million of HCT116 cells suspended in 100 μl 1×PBS containing 50% Matrigel. Beginning at Day 6 post cell inoculation, the tumor volume was measured every day until the average tumor volume reached about 100 mm^3 (Tumor Volume=length×width×width×0.5). Forty-four (44) out of the fifty (50) mice within the range of 50-150 mm^3 were selected and randomly grouped into 4 groups (n=11): a control group treated with water ([…]), and 324 mg/kg (Group 4). The HCT-116 tumor bearing mice were oral gavage (PO) dosed daily at 5 ml/kg with water (Group 1), α-methyl-DL-tyrosine at 81 mg/kg (Group 2), α-methyl-DL-tyrosine at 162 mg/kg (Group 3), and α-methyl-DL-tyrosine at 324 mg/kg (Group 4) for 28 days. Clinical observations were made daily; tumor volume was measured every three to four days prior to dosing until the completion of study or when individual tumor volume exceeds 2000 mm^3.

SMILES: CC(N)(Cc1ccc(O)cc1)C(=O)O (racemic) [α-methyl-DL-tyrosine]
- tumor growth inhibition (324 mg/kg daily PO, p<0.05, t-test): statistically significant
- tumor inhibition (324 mg/kg daily, Day 28): non-significant
- HCT-116 Tumor volume (group average) (G2, 162 mg/kg [sic] PO daily, n = 11, Day 0 post 1st dosing): 63.5 mm^3
- HCT-116 Tumor volume (group average) (G2, 162 mg/kg [sic] PO daily, n = 11, Day 4 post 1st dosing): 112.5 mm^3
- HCT-116 Tumor volume (group average) (G2, 162 mg/kg [sic] PO daily, n = 11, Day 7 post 1st dosing): 215.3 mm^3
- HCT-116 Tumor volume (group average) (G2, 162 mg/kg [sic] PO daily, n = 11, Day 11 post 1st dosing): 373.6 mm^3
- HCT-116 Tumor volume (group average) (G2, 162 mg/kg [sic] PO daily, n = 11, Day 14 post 1st dosing): 643.5 mm^3
- HCT-116 Tumor volume (group average) (G2, 162 mg/kg [sic] PO daily, n = 11, Day 18 post 1st dosing): 1022.3 mm^3
- HCT-116 Tumor volume (group average) (G2, 162 mg/kg [sic] PO daily, n = 11, Day 21 post 1st dosing): 1405.9 mm^3
- HCT-116 Tumor volume (group average) (G2, 162 mg/kg [sic] PO daily, n = 11, Day 25 post 1st dosing): 1592.4 mm^3
- HCT-116 Tumor volume (group average) (G2, 162 mg/kg [sic] PO daily, n = 11, Day 28 post 1st dosing): 1718.8 mm^3
- HCT-116 Tumor volume (group average) (G3, 81 mg/kg [sic] PO daily, n = 11, Day 0 post 1st dosing): 64.3 mm^3
- HCT-116 Tumor volume (group average) (G3, 81 mg/kg [sic] PO daily, n = 11, Day 4 post 1st dosing): 106.0 mm^3
- HCT-116 Tumor volume (group average) (G3, 81 mg/kg [sic] PO daily, n = 11, Day 7 post 1st dosing): 214.6 mm^3
- HCT-116 Tumor volume (group average) (G3, 81 mg/kg [sic] PO daily, n = 11, Day 11 post 1st dosing): 391.4 mm^3
- HCT-116 Tumor volume (group average) (G3, 81 mg/kg [sic] PO daily, n = 11, Day 14 post 1st dosing): 676.6 mm^3
- HCT-116 Tumor volume (group average) (G3, 81 mg/kg [sic] PO daily, n = 11, Day 18 post 1st dosing): 1210.3 mm^3
- HCT-116 Tumor volume (group average) (G3, 81 mg/kg [sic] PO daily, n = 11, Day 21 post 1st dosing): 1680.1 mm^3
- HCT-116 Tumor volume (group average) (G3, 81 mg/kg [sic] PO daily, n = 11, Day 25 post 1st dosing): 1868.0 mm^3
- HCT-116 Tumor volume (group average) (G3, 81 mg/kg [sic] PO daily, n = 11, Day 28 post 1st dosing): 1979.2 mm^3
- HCT-116 Tumor volume (group average) (G4, 324 mg/kg PO daily, n = 11, Day 0 post 1st dosing): 64.2 mm^3
- HCT-116 Tumor volume (group average) (G4, 324 mg/kg PO daily, n = 11, Day 4 post 1st dosing): 92.9 mm^3
- HCT-116 Tumor volume (group average) (G4, 324 mg/kg PO daily, n = 11, Day 7 post 1st dosing): 172.3 mm^3
- HCT-116 Tumor volume (group average) (G4, 324 mg/kg PO daily, n = 11, Day 11 post 1st dosing): 310.5 mm^3
- HCT-116 Tumor volume (group average) (G4, 324 mg/kg PO daily, n = 11, Day 14 post 1st dosing): 506.3 mm^3
- HCT-116 Tumor volume (group average) (G4, 324 mg/kg PO daily, n = 11, Day 18 post 1st dosing): 654.9 mm^3
- HCT-116 Tumor volume (group average) (G4, 324 mg/kg PO daily, n = 11, Day 21 post 1st dosing): 890.6 mm^3
- HCT-116 Tumor volume (group average) (G4, 324 mg/kg PO daily, n = 11, Day 25 post 1st dosing): 1090.1 mm^3
- HCT-116 Tumor volume (group average) (G4, 324 mg/kg PO daily, n = 11, Day 28 post 1st dosing): 1325.7 mm^3
- maximum anti-tumor efficacy, reduction in tumor volume (observed on Day 22 (so in the source)): 48%
